Laboratory results published in PubChem BioAssay (NCI).
Values joined by “and” are separate entries in the source; they are usually repeats but may differ in a detail not shown here. Identical values can stand only once.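 Each compound was tested at five concentrations against cells in 96-well plates for 48 hours. GI50: concentration for 50% inhibition of growth. TGI is the concentration that stops growth completely.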

Columns and labels:
Assay in all cases: inhibition of tumour cell growth, NCI panel, 48 h
HT29 colon = test system: HT29 colon
OVCAR-3 ovarian = test system: OVCAR-3 ovarian
OVCAR-5 ovarian = test system: OVCAR-5 ovarian
SN12C renal = test system: SN12C renal
A498 renal = test system: A498 renal
U251 CNS = test system: U251 CNS
HL-60(TB) leukemia = test system: HL-60(TB) leukemia
OVCAR-4 ovarian = test system: OVCAR-4 ovarian
RPMI-8226 leukemia = test system: RPMI-8226 leukemia
UACC-62 melanoma = test system: UACC-62 melanoma

Row | Structure (SMILES) | GI50 (HT29 colon) [µM] | TGI (HT29 colon) [µM] | GI50 (OVCAR-3 ovarian) [µM] | TGI (OVCAR-3 ovarian) [µM] | GI50 (OVCAR-5 ovarian) [µM] | TGI (OVCAR-5 ovarian) [µM] | GI50 (SN12C renal) [µM] | TGI (SN12C renal) [µM] | GI50 (A498 renal) [µM] | TGI (A498 renal) [µM] | GI50 (U251 CNS) [µM] | TGI (U251 CNS) [µM] | GI50 (HL-60(TB) leukemia) [µM] | TGI (HL-60(TB) leukemia) [µM] | GI50 (OVCAR-4 ovarian) [µM] | TGI (OVCAR-4 ovarian) [µM] | GI50 (RPMI-8226 leukemia) | TGI (RPMI-8226 leukemia) | GI50 (UACC-62 melanoma) [µM] | TGI (UACC-62 melanoma) [µM]
1 | COc1cc(/C=C2\C(=O)Nc3ccc(Cl)cc32)cc(OC)c1OC | 6.71 | > 100 | 19.6 | > 100 | 21.2 | 62.3 | 26.5 | > 100 | 23.2 | 72.4 | 13.1 | 32.4 | 13.4 | > 100 | 43.9 | > 100 | 3.9 µM | > 100 µM | 16.3 | > 100
2 | COc1cc(-c2n/c(=C\c3c(O)[nH]c4ccccc34)cc3c2=Nc2ccccc2-3)ccc1F | 4.02 | 16.1 | 4.08 | 14.5 | 22.2 | 90.8 | 10.7 | 34 | 40.4 | > 100 | 2.05 | 4.19 | > 100 | > 100 | 2.32 | 6.4 | 17.5 µM | > 100 µM | 5.98 | 21.7
3 | CCOC(=O)NC(=O)c1cn(CCN(CCO)C(=O)NCCCCCCNC(=O)N(CCO)CCn2cc(C(=O)NC(=O)OCC)c(=O)[nH]c2=O)c(=O)[nH]c1=O | – | > 100 | – | > 100 | – | > 100 | – | > 100 | – | > 100 | – | > 100 | – | > 100 | – | > 100 | – | > 100 µM | – | > 100
4 | N#CC1(C#N)C(=O)c2ccncc2C1=O | – | > 100 | – | > 100 | – | > 100 | – | > 100 | – | > 100 | – | > 100 | – | > 100 | – | > 100 | – | > 100 µM | – | > 100
5 | CCCC[n+]1ccn(-c2nc3ccccc3n2C)c1 | – | > 100 | – | > 100 | – | > 100 | – | > 100 | – | – | – | > 100 | – | > 100 | – | > 100 | – | > 100 µM | – | > 100
6 | C/C=C(\C)C(=O)OC1C2C(C)=CC(=O)C(O)C2(C)C2C3(O)OCC24C1OC(=O)C(OC(C)=O)C4C(C)C3O (stereo not drawn) | – | 0.382 | – | 0.0496 | – | 1.53 | – | 0.468 | – | 0.147 | – | 0.0407 | – | 0.808 | – | 0.413 | – | 0.0377 µM | – | 0.0555
7 | CN(CCO)CCC1COc2ccccc2O1 (stereo not drawn) | – | > 10 | – | > 10 | – | > 10 | – | > 10 | – | > 10 | – | > 10 | – | > 10 | – | > 10 | – | > 10 µM | – | > 10
8 | COC1=CC(c2ccc[nH]2)=N/C1=C\c1[nH]c(C)c(CC(=O)NCc2ccccc2)c1C | – | – | 1.46 | 2.91 | – | – | – | – | 1.28 | 2.71 | 1.23 | 2.49 | 1.63 | 3.47 | 1.35 | 2.93 | – | – | – | –
9 | O=C(N/N=C\c1ccc(N(CCCl)CCCl)cc1)c1cccnc1 | > 100 | > 100 | 30.5 | > 100 | > 100 | > 100 | 20.6 | > 100 | 42.2 | > 100 | > 100 | > 100 | 3.39 | 46.9 | – | – | 44.8 µM | > 100 µM | 9.1 | > 100
10 | N/C(=C\c1ccc(/C=C(\NC(=O)c2ccccc2)c2nc3c([nH]2)C(=O)c2ccccc2C3=O)cc1)c1nc2c([nH]1)C(=O)c1ccccc1C2=O | – | 32.4 | – | 57.3 | – | 40.5 | – | 32.8 | – | 29.9 | – | 33.6 | – | 38.3 | – | 34 | – | 26.1 µM | – | 27.8
11 | COc1ccc2c(c1)C(=O)c1c-2n(CCCN=[N+]=[N-])c(=O)c2cc([N+](=O)[O-])ccc12 | 2.82 | > 100 | – | – | – | > 100 | 0.314 | 2.01 | – | – | 0.16 | – | – | – | – | – | 0.0128 µM and 0.0101 µM | 0.264 µM and 1.35 µM | 0.225 | 0.991
12 | N#C[S-].[Ce+3].c1ccc(-c2ccccn2)nc1.c1ccc(-c2ccccn2)nc1.c1ccc(-c2ccccn2)nc1 | 10.6 | > 100 | 43.1 | > 100 | 6.15 | 42.9 | 12.8 | > 100 | – | – | 13.3 | > 100 | – | – | 13.2 | > 100 | – | – | 20.6 | 55.2
13 | CC1=C/C(=N\NS(=O)(=O)c2ccc([N+](=O)[O-])cc2)CC(C)(C)C1 | – | – | – | > 100 | – | > 100 | – | > 100 | – | > 100 | – | > 100 | – | > 100 | – | – | – | > 100 µM | – | > 100
14 | COC(Cc1cc(C(O)(c2ccc(C(C)(C)C)cc2)c2cc(CC(OC)(c3cc(C(OC)(c4ccc(C(C)(C)C)cc4)c4ccc(C(C)(C)C)cc4)c(C)cc3C)c3cc(C(OC)(c4ccc(C(C)(C)C)cc4)c4ccc(C(C)(C)C)cc4)c(C)cc3C)c(C)cc2C)c(C)cc1C)(c1cc(C(OC)(c2ccc(C(C)(C)C)cc2)c2ccc(C(C)(C)C)cc2)c(C)cc1C)c1cc(C(OC)(c2ccc(C(C)(C)C)cc2)c2ccc(C(C)(C)C)cc2)c(C)cc1C | – | > 75 | – | > 75 | – | > 75 | – | > 75 | – | > 75 | – | > 75 | – | > 75 | – | > 75 | – | – | – | > 75
15 | COc1nc2ccc(Cl)c(C(O)c3ccccc3)c2nc1OC (stereo not drawn) | – | > 100 | – | 69.6 | – | > 100 | – | 40.3 | – | 37.1 | – | 88 | – | 52.5 | – | > 100 | – | 34.1 µM | – | 96.3
